ChEMBL document CHEMBL1201862, “PubChem BioAssay data set” (2004)
The source made the active and inactive calls. Cut-off read from the data, not from the text of the source, for most assays here: actives have a measured EC50 and inactives only a lower limit.

Tests used:
[1] = A High Throughput Confirmatory Assay used to Identify Novel Compounds that Inhibit Mycobacterium Tuberculosis in the absence of Glycerol.; type: functional
[2] = biological target: T1, Eukaryotic translation initiation factor 2-alpha kinase 3 (Homo sapiens, UniProt Q9NZJ5); assay: Counterscreen assay for PERK inhibitors: Dose response cell-based high throughput screening assay to measure inhibition of PERK at 6 hours. [Related pubchem assays: 1522, 1416 ]; type: functional
T1 sequence (Q9NZJ5 whole entry): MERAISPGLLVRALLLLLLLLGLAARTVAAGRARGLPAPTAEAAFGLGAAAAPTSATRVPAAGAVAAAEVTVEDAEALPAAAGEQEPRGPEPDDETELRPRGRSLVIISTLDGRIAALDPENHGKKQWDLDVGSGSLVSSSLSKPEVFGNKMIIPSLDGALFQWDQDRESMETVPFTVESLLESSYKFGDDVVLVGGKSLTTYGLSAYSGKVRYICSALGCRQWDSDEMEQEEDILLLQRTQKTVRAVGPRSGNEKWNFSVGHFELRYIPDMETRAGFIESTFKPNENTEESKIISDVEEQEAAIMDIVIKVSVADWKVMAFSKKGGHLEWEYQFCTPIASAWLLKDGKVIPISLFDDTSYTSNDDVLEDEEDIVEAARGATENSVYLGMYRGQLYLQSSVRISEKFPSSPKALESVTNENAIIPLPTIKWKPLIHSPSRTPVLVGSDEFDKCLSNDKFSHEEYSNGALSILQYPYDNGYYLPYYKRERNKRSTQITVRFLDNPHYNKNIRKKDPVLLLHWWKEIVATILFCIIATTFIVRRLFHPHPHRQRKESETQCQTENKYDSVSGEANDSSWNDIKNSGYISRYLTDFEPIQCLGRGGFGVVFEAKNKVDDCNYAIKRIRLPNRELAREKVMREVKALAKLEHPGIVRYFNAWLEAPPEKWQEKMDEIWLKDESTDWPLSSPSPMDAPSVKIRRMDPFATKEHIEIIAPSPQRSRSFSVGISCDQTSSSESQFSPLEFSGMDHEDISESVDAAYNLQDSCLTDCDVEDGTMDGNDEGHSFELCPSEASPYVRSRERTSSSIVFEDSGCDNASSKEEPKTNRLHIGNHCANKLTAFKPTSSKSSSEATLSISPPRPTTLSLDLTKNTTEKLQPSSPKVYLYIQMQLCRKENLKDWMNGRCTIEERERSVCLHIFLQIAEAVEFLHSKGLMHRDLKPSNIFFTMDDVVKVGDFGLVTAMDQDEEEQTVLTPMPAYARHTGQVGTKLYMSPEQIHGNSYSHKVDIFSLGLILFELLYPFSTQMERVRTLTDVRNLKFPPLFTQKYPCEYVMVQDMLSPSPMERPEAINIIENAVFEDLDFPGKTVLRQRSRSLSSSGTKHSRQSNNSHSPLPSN

[3] = biological target: T1, Eukaryotic translation initiation factor 2-alpha kinase 3; assay: Dose response cell-based high-throughput screening assay to measure PERK inhibition. [Related pubchem assays: 1416 ]; type: functional
[4] = inhibitors of intracellular T. cruzi replication, confirmation, NIH3T3 host cells, beta-gal luminescence (AID 2044); type: functional, cell-based;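 note: intracellular parasites grown in NIH/3T3 mouse fibroblasts as host cells; luminescent beta-galactosidase reporter signal from transgenic T. cruzi replicating inside host cells; inhibitors lower the luminescence signal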
HeLa = assay: HeLa cell cytotoxicity, dose response, cytotoxicity control, 24 h, cherry-picked samples (AID 504726); type: functional, cell-based; conditions: Homo sapiens;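 note: potency for cytotoxicity as loss of luminescence signal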
[5] = cytotoxicity toward NIH3T3 fibroblasts, dose response, counter-screen, cell-based, ATP luminescence, mouse fibroblasts (AID 2010); type: functional;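 note: cells exposed to compound for about 90 hours before reading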
[6] = A Cell Based Secondary Assay To Explore Cytotoxicity of Compounds that Sensitize Mycobacterium Tuberculosis to Beta-Lactam Antibiotics.; type: functional
[7] = A549 cell cytotoxicity, dose response, cytotoxicity control, plate reader, cherry-pick, antagonist series (AID 743412); type: functional, cell-based
[8] = inhibitors of firefly luciferase expression or activity, dose response, H4 neuroglioma cells, luminescence (AID 1990); type: functional, cell-based
[9] = inhibitors of SNCA 5'UTR-driven translation, confirmation, luminescence, H4 neuroglioblastoma cells, dose confirmation (AID 2454); type: functional, cell-based;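 note: H4 neuroglioblastoma cells carrying an alpha-synuclein 5'UTR luciferase reporter; potency for inhibition of the luciferase signal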
[10] = biological target: Peroxisome proliferator-activated receptor gamma/Nuclear receptor coactivator 2 (Homo sapiens, UniProt P37231); assay: (§1) TR-FRET dose response biochemical High Throughput Screening assay for agonists of the steroid receptor coactivator 2 (SRC-2) recruitment by the peroxisome proliferator-activated receptor gamma (PPAR gamma): non-selective agonists. [Related pubchem assays: 1297, 1032 ]; type: functional
[11] = biological target: Peroxisome proliferator-activated receptor gamma/Nuclear receptor coactivator 3 (Homo sapiens, UniProt P37231); assay: as §1, with “3 (SRC-3)” for “2 (SRC-2)”, “1301 (Confirmation screen.), 1048 (Primary screen.)]” for “1297, 1032 ]”; type: functional
[12] = Luminescence Cell-Based Dose Response HTS to Identify Inhibitors of 5'UTR Stem-Loop Driven Prion Protein mRNA Translation in H4 Neuroglioblastoma Cells. [Related pubchem assays: 1827 (Project Summary), 1813 (Primary HTS)]; type: functional
[13] = biological target: Peroxisome proliferator-activated receptor gamma/Nuclear receptor coactivator 1 (Homo sapiens, UniProt P37231); assay: as §1, with “1 (SRC-1)” for “2 (SRC-2)”, “assays (depositor defined):AID1300, AID1808, AID504735, AID631]” for “assays: 1297, 1032 ]”; type: protein assay
[14] = luciferase reporter signal reduction – luminescence, H4-C neuroglioblastoma cells, dose response (AID 2458); type: functional, cell-based;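 note: H4 neuroglioblastoma cells stably carrying a luciferase reporter gene fusion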
[15] = MC4R antagonists, dose response, counter-screen for LGR2 antagonist project, cell-based, plate reader, cherry pick (AID 743444); type: functional;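 note: transfected HEK 293 cells stimulated with alpha-MSH peptide; potency of inhibitors of the alpha-MSH evoked signal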
cells = type: functional, cell-based
[16] = LGR2 antagonists, dose response, cell-based, HEK293, CRE-luciferase reporter, cherry pick, set 2 (AID 743343); type: functional;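 note: transfected cells were stimulated with diluted bursicon conditioned medium after compound addition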
[17] = biological target: Melanin-concentrating hormone receptor 1 (Homo sapiens, UniProt Q99705); assay: Late-stage fluorescence-based counterscreen for antagonists of the G-protein coupled receptor 7 (GPR7): cell-based dose response assay to identify antagonists of the melanin-concentrating hormone receptor 1 (MCHR1). [Related pubchem assays (depositor defined):AID1861, AID1880, AID1952, AID2148, AID2251, AID2257, AID485339]; type: functional;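 note: stimulated with 30 nM MCH peptide agonist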
BJ [18] = assay: cells; type: functional, cell-based; conditions: Homo sapiens
BJ [19] = assay: cytotoxicity toward BJ-TERT fibroblasts, dose response, cell-based, RAS-independent, luminescence (AID 1933); type: functional; conditions: Homo sapiens
BJ [20] = assay: cytotoxicity toward BJ-TERT-LT-ST fibroblasts, dose response, cell-based, RAS-independent, luminescence (AID 1935); type: functional; conditions: Homo sapiens;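 note: BJ fibroblasts immortalized with TERT plus LT and ST oncogenes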
[21] = cytotoxicity toward DRD oncogenic fibroblasts, dose response, cell-based, non-viral oncogenic, luminescence (AID 1934); type: functional; conditions: Homo sapiens
BJ [22] = assay: cytotoxicity toward Ras-transformed BJeLR fibroblasts, dose response, cell-based, alamar blue fluorescence, cherrypicked samples (AID 2631); type: functional; conditions: Homo sapiens;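 note: confirmatory dose-response assay in RAS-dependent BJ fibroblasts engineered with TERT, LT and ST, with cytotoxicity read by fluorescence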
[23] = inhibitors of SNCA 5'UTR-driven reporter translation, confirmation, H4 neuroglioma cells, luminescence (AID 1988); type: functional, cell-based

Chain of Peroxisome proliferator-activated receptor gamma/Nuclear receptor coactivator 3 (P37231 whole entry): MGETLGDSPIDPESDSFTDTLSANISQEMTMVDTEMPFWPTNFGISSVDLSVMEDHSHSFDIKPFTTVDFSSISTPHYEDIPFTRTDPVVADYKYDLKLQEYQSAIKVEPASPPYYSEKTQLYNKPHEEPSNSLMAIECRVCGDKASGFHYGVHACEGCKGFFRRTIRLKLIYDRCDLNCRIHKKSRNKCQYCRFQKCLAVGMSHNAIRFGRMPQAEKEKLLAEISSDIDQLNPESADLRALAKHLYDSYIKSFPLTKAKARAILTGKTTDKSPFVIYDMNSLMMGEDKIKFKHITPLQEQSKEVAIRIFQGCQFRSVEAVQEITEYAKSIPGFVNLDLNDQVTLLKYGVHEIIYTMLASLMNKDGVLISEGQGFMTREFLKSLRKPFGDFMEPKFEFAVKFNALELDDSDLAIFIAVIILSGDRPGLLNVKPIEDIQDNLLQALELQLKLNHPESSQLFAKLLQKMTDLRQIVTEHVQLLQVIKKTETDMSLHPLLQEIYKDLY
Chain of Peroxisome proliferator-activated receptor gamma/Nuclear receptor coactivator 3 (Q9Y6Q9 whole entry, further chain): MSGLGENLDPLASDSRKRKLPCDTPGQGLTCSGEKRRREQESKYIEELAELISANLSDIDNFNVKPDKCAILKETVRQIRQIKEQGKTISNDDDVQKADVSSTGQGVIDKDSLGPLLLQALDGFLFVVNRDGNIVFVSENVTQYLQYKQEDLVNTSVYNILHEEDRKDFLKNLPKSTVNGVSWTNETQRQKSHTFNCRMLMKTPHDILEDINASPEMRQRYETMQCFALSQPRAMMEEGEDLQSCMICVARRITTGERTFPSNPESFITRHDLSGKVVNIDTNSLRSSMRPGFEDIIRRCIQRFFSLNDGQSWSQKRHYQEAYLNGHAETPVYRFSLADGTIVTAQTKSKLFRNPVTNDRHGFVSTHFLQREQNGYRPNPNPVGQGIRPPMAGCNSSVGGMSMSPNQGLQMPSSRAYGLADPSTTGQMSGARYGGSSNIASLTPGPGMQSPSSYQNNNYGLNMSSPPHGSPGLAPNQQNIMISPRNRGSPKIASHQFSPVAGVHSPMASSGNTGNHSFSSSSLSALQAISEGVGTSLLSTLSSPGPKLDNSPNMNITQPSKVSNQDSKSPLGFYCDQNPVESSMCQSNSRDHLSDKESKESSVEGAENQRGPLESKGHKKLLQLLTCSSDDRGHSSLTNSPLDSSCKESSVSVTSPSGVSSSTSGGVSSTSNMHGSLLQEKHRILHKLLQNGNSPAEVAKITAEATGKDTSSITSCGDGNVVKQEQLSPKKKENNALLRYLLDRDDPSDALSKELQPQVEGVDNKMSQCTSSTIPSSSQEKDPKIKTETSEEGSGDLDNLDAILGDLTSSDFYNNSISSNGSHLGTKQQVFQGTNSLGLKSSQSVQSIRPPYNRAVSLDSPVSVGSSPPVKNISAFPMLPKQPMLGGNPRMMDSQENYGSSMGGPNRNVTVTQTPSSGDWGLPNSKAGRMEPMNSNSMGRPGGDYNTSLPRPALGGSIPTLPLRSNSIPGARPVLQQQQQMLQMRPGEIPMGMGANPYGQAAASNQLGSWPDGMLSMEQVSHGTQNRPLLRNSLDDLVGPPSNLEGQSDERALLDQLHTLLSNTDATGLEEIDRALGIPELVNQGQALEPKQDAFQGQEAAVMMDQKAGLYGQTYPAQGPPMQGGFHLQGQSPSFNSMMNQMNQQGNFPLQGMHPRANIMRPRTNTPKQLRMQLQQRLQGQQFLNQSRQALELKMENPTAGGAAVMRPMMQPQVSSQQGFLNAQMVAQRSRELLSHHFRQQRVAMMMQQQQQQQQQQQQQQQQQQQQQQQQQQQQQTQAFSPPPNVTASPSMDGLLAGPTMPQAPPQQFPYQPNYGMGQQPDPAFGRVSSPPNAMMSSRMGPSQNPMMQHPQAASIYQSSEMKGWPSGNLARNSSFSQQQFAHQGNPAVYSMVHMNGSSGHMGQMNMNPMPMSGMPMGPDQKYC
Chain of Peroxisome proliferator-activated receptor gamma/Nuclear receptor coactivator 1 (P37231 whole entry, the tested form may be a part): as the sequence (P37231 whole entry) above
Chain of Peroxisome proliferator-activated receptor gamma/Nuclear receptor coactivator 1 (Q15788 whole entry, further chain, the tested form may be a part): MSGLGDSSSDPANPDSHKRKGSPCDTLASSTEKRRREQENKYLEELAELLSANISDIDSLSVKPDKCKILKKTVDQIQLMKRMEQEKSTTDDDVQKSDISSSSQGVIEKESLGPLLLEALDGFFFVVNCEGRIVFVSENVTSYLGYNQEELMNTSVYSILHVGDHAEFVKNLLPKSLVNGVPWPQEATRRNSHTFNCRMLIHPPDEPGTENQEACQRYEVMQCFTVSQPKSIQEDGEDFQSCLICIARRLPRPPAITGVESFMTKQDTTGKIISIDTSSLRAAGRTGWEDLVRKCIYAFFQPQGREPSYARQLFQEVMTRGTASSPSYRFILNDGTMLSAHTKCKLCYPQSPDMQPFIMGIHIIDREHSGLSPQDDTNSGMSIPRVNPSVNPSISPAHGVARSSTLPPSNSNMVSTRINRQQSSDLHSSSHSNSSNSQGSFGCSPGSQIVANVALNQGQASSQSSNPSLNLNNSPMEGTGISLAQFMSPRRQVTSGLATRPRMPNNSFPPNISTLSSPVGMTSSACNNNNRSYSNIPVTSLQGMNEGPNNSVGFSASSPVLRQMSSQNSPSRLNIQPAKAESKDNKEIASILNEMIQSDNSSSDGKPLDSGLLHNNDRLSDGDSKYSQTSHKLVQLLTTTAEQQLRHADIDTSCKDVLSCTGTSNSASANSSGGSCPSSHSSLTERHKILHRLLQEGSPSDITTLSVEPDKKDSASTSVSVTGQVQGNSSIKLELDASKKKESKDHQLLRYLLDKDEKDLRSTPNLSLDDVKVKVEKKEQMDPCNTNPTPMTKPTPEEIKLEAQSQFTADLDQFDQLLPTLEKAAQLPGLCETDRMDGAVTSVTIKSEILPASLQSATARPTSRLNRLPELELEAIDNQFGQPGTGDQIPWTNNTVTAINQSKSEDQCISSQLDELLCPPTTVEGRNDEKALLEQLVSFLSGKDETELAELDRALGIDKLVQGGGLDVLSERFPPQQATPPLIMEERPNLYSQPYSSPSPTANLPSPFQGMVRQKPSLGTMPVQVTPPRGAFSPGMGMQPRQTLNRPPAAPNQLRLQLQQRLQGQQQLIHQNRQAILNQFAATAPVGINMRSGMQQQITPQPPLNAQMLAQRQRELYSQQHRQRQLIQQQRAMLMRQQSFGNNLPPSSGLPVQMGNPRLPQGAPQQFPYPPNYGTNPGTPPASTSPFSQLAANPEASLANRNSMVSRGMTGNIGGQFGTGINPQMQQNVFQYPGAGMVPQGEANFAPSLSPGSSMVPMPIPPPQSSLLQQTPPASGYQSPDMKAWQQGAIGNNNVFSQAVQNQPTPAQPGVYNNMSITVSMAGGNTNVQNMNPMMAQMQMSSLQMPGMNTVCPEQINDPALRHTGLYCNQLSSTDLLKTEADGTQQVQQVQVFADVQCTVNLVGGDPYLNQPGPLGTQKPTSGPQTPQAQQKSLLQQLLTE
Chain of Melanin-concentrating hormone receptor 1 (Q99705 whole entry): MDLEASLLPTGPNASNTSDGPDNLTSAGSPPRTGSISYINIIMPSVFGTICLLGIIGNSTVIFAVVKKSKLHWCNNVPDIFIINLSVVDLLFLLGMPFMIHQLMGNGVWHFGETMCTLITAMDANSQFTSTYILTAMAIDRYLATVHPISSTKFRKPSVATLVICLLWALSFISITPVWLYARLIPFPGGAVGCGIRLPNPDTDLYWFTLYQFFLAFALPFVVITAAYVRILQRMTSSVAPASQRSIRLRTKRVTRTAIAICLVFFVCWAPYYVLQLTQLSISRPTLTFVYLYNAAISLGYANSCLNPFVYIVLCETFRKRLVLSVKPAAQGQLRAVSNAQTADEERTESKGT

For `Cc1nn(-c2ccccc2)c(Cl)c1C(=O)Nc1nnc(C2CCCCC2)s1`, the IC50 [1] was > 50 µM (active).

In the case of `O=C(NNC(=O)C1CCCN(S(=O)(=O)c2ccc3ccccc3c2)C1)C1CC1` (stereo not given), the EC50 [2] is reported as > 55.7 µM (not active) and the EC50 [3] is reported as 23.2 µM (not active).

In the case of `Cc1ccc(-c2nnn(CC(=O)NC3CCN(Cc4ccccc4)CC3)n2)cc1`, the EC50 [4] is reported as 0.141 µM (active), the AC50 (HeLa) is reported as 276 µM (active) and the EC50 [5] is reported as > 60 µM (not active).

With `O=C1C=C2C=C[C@@H]3CC2(O1)[C@H]1CCCCN31` the CC50 [6] was 39.4 µM (active).

In the case of `O=C(c1ccccc1)N1CCSc2sccc2C1=O`, the AC50 [7] is reported as > 52 µM (inactive), the EC50 [8] is reported as 7.87 µM (active) and the EC50 [9] is reported as 1.08 µM (active). The EC50 [10] was 15.8 µM (not active), the EC50 [11] was > 79.4 µM (not active) and the EC50 [12] was < 0.1 µM (active). The EC50 [13] was 18.9 µM (inactive), the EC50 [14] was 0.896 µM (active) and the AC50 [15] was 3.77 µM (active). For the same molecule, the EC50 (cells) was 7.25 µM (active) and the AC50 [16] was 4 µM (active).

With `COc1ccc(Oc2c(Cl)cnn(-c3ccc(C4CC4)cc3)c2=O)cc1` the IC50 [17] was 6.8 µM (active).

In the case of `O=C(N/N=C/c1cccs1)c1cc(-c2ccncc2)nc2ccccc12`, the EC50 (BJ [18]) is reported as 0.712 µM (active), the EC50 (BJ [19]) is reported as 0.602 µM (active) and the EC50 (BJ [20]) is reported as 0.671 µM (active). For the same molecule, the EC50 [8] was 4.61 µM (active), the EC50 [9] was > 12 µM (inconclusive) and the EC50 [21] was 0.463 µM (active). The EC50 [12] was 0.294 µM (active), the EC50 [14] was > 12 µM (inconclusive) and the EC50 (cells) was 2.19 µM (active). For the same molecule, the EC50 (BJ [22]) was 0.24 µM (active) and the EC50 [23] was < 0.1 µM (active).
